According to the RepoRT retention time repository:

Assay: HILIC, Waters ACQUITY UPLC BEH Amide, 100 × 2.1 mm, 1.7 µm; A: water + 0.125% formic acid + 10 mM ammonium formate; B: 5% water + 95% acetonitrile + 0.125% formic acid + 10 mM ammonium formate; gradient (min/%B) 0/100 2/100 7.7/70 9.5/40 10.25/30 12.75/100 17/100
Conditions: stereoisomer not certain

Structure (SMILES) | LC retention time [min]
CC(Cc1ccccc1)N(C)Cc1ccccc1 (stereo not given) [Benzphetamine] | 2.03
CC(=O)OCc1ccccc1 [Benzylacetate] | 8.71
CC(C)CC(NC(=O)C(O)C(N)Cc1ccccc1)C(=O)O (stereo not given) [Bestatin] | 5.98
C[N+](C)(C)CC(=O)[O-] [Betaine] | 7.24
CC(C)NCC(O)COc1ccc(CCOCC2CC2)cc1 (stereo not given) [Betaxolol] | 3.05
CC(O)(CS(=O)(=O)c1ccc(F)cc1)C(=O)Nc1ccc(C#N)c(C(F)(F)F)c1 (stereo not given) [Bicalutamide] | 0.99
CNCCCCOc1ccccc1Cc1ccccc1 [Bifemelane] | 2.46
c1ccc(-c2ccc(C(c3ccccc3)n3ccnc3)cc2)cc1 (stereo not given) [Bifonazole] | 1.19
O=C1CC2(CCCC2)CC(=O)N1CCNCC1COc2ccccc2O1 (stereo not given) [Binospirone] | 1.8
O=C(O)CCCCC1SCC2NC(=O)NC21 (stereo not given) [Biotin] | 2.85
CC(C)NCC(O)COc1ccc(COCCOC(C)C)cc1 (stereo not given) [Bisoprolol] | 3.47
NC(=O)NC(N)=O [Biuret] | 2.73
O=C1CN=C(c2ccccn2)c2cc(Br)ccc2N1 [Bromazepam] | 1.3
COc1cc2c(cc1OC)C13CCN4CC5=CCOC6CC(=O)N2C1C6C5CC43 (stereo not given) [Brucine] | 4.57
COc1cc(OC)c(C(=O)CCCN2CCCC2)c(OC)c1 [Buflomedil] | 2.34
CC(NC(C)(C)C)C(=O)c1cccc(Cl)c1 (stereo not given) [Bupropion] | 2.22
CCCC(=O)O [Butanoic acid] | 10.2
CCCC(=O)NCC(=O)O [Butyrylglycine] | 3.73
NCCCCCN [Cadaverine] | 8.99
Cn1c(=O)c2c(ncn2C)n(C)c1=O [Caffeine] | 1.21
c1ccc2c(-c3nccs3)c[nH]c2c1 [Camalexin] | 1.05
NC(N)=NOCCC(N)C(=O)O (stereo not given) [Canavanine] | 9.42
COc1cc(CNC(=O)CCCCC=CC(C)C)ccc1O [Capsaicin] | 1
NC(=O)N1c2ccccc2C=Cc2ccccc21 [Carbamazepine] | 1.21

Structure (SMILES) | LC retention time [min]
NC(CSCC(=O)O)C(=O)O (stereo not given) [Carbocysteine] | 9.04
CC(Cc1ccc(C(C)C(=O)O)cc1)C(=O)O (stereo not given) [Carboxyibuprofen] | 1.11
C[N+](C)(C)CC(O)CC(=O)[O-] (stereo not given) [Carnitine] | 7.83
NCCC(=O)NC(Cc1cnc[nH]1)C(=O)O (stereo not given) [Carnosine] | 9.54
COc1ccccc1OCCNCC(O)COc1cccc2[nH]c3ccccc3c12 (stereo not given) [Carvedilol] | 3.17
NC(C(=O)NC1C(=O)N2C(C(=O)O)=C(Cl)CSC12)c1ccccc1 (stereo not given) [Cefaclor] | 5.61
NC(C(=O)NC1C(=O)N2C(C(=O)O)=C(CSc3cn[nH]n3)CSC12)c1ccc(O)cc1 (stereo not given) [Cefatrizine] | 7.98
C=CC1=C(C(=O)O)N2C(=O)C(NC(=O)C(=NO)c3csc(N)n3)C2SC1 (stereo not given) [Cefdinir] | 6.94
C=CC1=C(C(=O)O)N2C(=O)C(NC(=O)C(=NOCC(=O)O)c3csc(N)n3)C2SC1 (stereo not given) [Cefixime] | 7.79
COCc1c(C(C)C)nc(C(C)C)c(C=CC(O)CC(O)CC(=O)O)c1-c1ccc(F)cc1 (stereo not given) [Cerivastatin] | 1.18
NCC1CCC(C(=O)Oc2ccc(CCC(=O)O)cc2)CC1 (stereo not given) [Cetraxate] | 5.29
CN=C1CN(O)C(c2ccccc2)=c2cc(Cl)ccc2=N1 [Chlordiazepoxide] | 1.35
O=C(C=Cc1ccc(O)c(O)c1)OC1CC(O)(C(=O)O)CC(O)C1O (stereo not given) [Chlorogenic acid] | 6.68
CN(C)CCC(c1ccc(Cl)cc1)c1ccccn1 (stereo not given) [Chlorpheniramine] | 2.54
C[N+](C)(C)CCO [Choline [M]+] | 5.18
CC1(C)CC1C(=O)NC(=CCCCCSCC(N)C(=O)O)C(=O)O (stereo not given) [Cilastatin] | 7.63
CN(C)CCCSc1ccccc1NC(=O)C=Cc1ccccc1 [Cinanserin] | 2.61
O=CC=Cc1ccccc1 [Cinnamaldehyde] | 9.18
COc1cc(N)c(Cl)cc1C(=O)NC1CCN(CCCOc2ccc(F)cc2)CC1OC (stereo not given) [Cisapride] | 2.28
NC(=O)NCCCC(N)C(=O)O (stereo not given) [Citrulline] | 8.74
Nc1nc(Cl)nc2c1ncn2C1CC(O)C(CO)O1 (stereo not given) [Cladribine] | 1.95
CCC1OC(=O)C(C)C(OC2CC(C)(OC)C(O)C(C)O2)C(C)C(OC2OC(C)CC(N(C)C)C2O)C(C)(OC)CC(C)C(=O)C(C)C(O)C1(C)O (stereo not given) [Clarithromycin] | 3
CN1C(=O)CC(=O)N(c2ccccc2)c2cc(Cl)ccc21 [Clobazam] | 1.1
NC(=NCc1ccc(Cl)cc1)SCCCc1cnc[nH]1 [Clobenpropit] | 6.13

Structure (SMILES) | LC retention time [min]
CC(C)N=c1cc2n(-c3ccc(Cl)cc3)c3ccccc3nc-2cc1Nc1ccc(Cl)cc1 [Clofazimine] | 1.78
CN(C)CCCN1c2ccccc2CCc2ccc(Cl)cc21 [Clomipramine] | 2.31
Clc1cccc(Cl)c1NC1=NCCN1 [Clonidine] | 2.85
CCOC(=O)C1C(OC(=O)c2ccccc2)CC2CCC1N2C (stereo not given) [Cocaethylene] | 2.12
COC(=O)C1C(OC(=O)c2ccccc2)CC2CCC1N2C (stereo not given) [Cocaine] | 2.2
COc1cc(C=CC=O)ccc1O [Coniferylaldehyde] | 1.14
Nc1ncnc2c1ncn2C1OC(CO)CC1O (stereo not given) [Cordycepin] | 3.54
CC12CCC(=O)C=C1CCC1C2C(O)CC2(C)C(C(=O)CO)CCC12 (stereo not given) [Corticosterone] | 1.25
CC12CCC(=O)C=C1CCC1C2C(=O)CC2(C)C1CCC2(O)C(=O)CO (stereo not given) [Cortisone] | 1.29
CC12CCC(=O)C=C1CCC1C2CCC2(C)C1CCC2(O)C(=O)CO (stereo not given) [Cortodoxone] | 1.15
COc1cc2c(cc1OC)C1C(C)c3ccc(OC)c(OC)c3CN1CC2 (stereo not given) [Corydaline] | 1.52
CN1C(=O)CCC1c1cccnc1 (stereo not given) [Cotinine] | 1.49
O=c1ccc2ccccc2o1 [Coumarin] | 1.08
CN(CC(=O)O)C(=N)N [Creatine] | 8.15
CN1CC(=O)NC1=N [Creatinine] | 4.93
CC=CC(=O)N(CC)c1ccccc1C [Crotamiton] | 0.97
CC(C)CC1NC(=O)C2CCCN2C1=O (stereo not given) [Cyclo(Leu-Pro)] | 1.29
NC1CCCCC1 [Cyclohexanamine] | 5.1
CN1CCC(=C2c3ccccc3C=Cc3ccccc32)CC1 [Cyproheptadine] | 2.31
NC(CCSCC(N)C(=O)O)C(=O)O (stereo not given) [Cystathionine] | 9.91
NC(CS(=O)(=O)O)C(=O)O (stereo not given) [Cysteic acid] | 8.92
NC(CS)C(=O)O (stereo not given) [Cysteine] | 5.31
NC(CSSCC(N)C(=O)O)C(=O)O (stereo not given) [Cystine] | 9.97
Nc1ccn(C2OC(COP(=O)(O)O)C(O)C2O)c(=O)n1 (stereo not given) [Cytidine-5'-monophosphate] | 9.48

Structure (SMILES) | LC retention time [min]
Nc1ccnc(=O)[nH]1 [Cytosine] | 5.9
O=c1c(-c2ccc(O)cc2)coc2cc(O)ccc12 [Daidzein] | 1.39
CCCCCCCCCC=O [Decanal] | 2.17
CC(CCC(=O)O)C1CCC2C3C(=O)CC4CC(=O)CCC4(C)C3CC(=O)C12C (stereo not given) [Dehydrocholic acid] | 1.16
CC12CCC3C(CC=C4CC(O)CCC43C)C1CCC2=O (stereo not given) [Dehydroepiandrosterone] | 1.03
O=c1ccn(C2CC(O)C(COP(=O)(O)O)O2)c(=O)[nH]1 (stereo not given) [Deoxyuridine monophosphate] | 8.25
Clc1ccc2c(c1)CCc1cccnc1C2=C1CCNCC1 [Desloratadine] | 4.9
CC1CC2C3CCC4=CC(=O)C=CC4(C)C3(F)C(O)CC2(C)C1C(=O)CO (stereo not given) [Desoximetasone] | 1.13
CS(=O)CCCCC(=NO)SC1OC(CO)C(O)C(O)C1O (stereo not given) [Desulfo Glucoraphanin] | 6.61
CN(C)CCC(c1ccc(Br)cc1)c1ccccn1 (stereo not given) [Dexbrompheniramine] | 2.56
COc1ccc2c(c1)C13CCCCC1C(C2)N(C)CC3 (stereo not given) [Dextromethorphan] | 2.64
CN1CCC23CCCCC2C1Cc1ccc(O)cc13 (stereo not given) [Dextrorphan] | 3.87
CN1C(=O)CN=C(c2ccccc2)c2cc(Cl)ccc21 [Diazepam] | 1.1
CC1=NS(=O)(=O)c2cc(Cl)ccc2N1 [Diazoxide] | 1.09
O=C(O)Cc1ccccc1Nc1c(Cl)cccc1Cl [Diclofenac] | 1.08
COc1cc(CNC(=O)CCCCCCC(C)C)ccc1O [Dihydrocapsaicin] | 1.07
CCCCCCCCCCCCCCCC(O)C(N)CO (stereo not given) [Dihydrosphingosine] | 4.47
CC(CO)CCNc1ncnc2nc[nH]c12 (stereo not given) [Dihydrozeatin] | 2.99
COC(=O)c1ccccc1C(=O)OC [Dimethyl phthalate] | 1.04
CCCCCCCCOC(=O)c1ccccc1C(=O)OCCCCCCCC [Dioctyl Phthalate] | 0.96
CN(C)CCOC(c1ccccc1)c1ccccc1 [Diphenhydramine] | 2.15
CCOC(=O)C1(c2ccccc2)CCN(CCC(C#N)(c2ccccc2)c2ccccc2)CC1 [Diphenoxylate] | 1.41
O=c1c(-c2ccccc2)c1-c1ccccc1 [Diphenylcyclopropenone] | 1.01
